# Like-named read-outs stand apart in the source and are kept apart here.
# Assays:
# [1] = system: Xenopus laevis testis explants (round spermatids); test: In vitro spermatid micronucleus assay (percent round spermatids with micronuclei in cultured testis explants); conditions: for relative in vitro clastogenic potency: day 30 micronucleus counts vs product of mutagen dose and exposure time (FIG. 7)
# [2] = system: chromosome aberrations, meiotic prophase; conditions: male mouse; cited from earlier work
structure (smiles),measurement,setting,value
"COc1cccc2c1C(=O)c1c(O)c3c(c(O)c1C2=O)C[C@@](O)(C(=O)CO)C[C@@H]3O[C@H]1C[C@H](N)[C@H](O)[C@H](C)O1 [AD, adriamycin]",concentration at which assay was sensitive to clastogenesis,"[1]; AD, 4 hr exposure, day 22, = 0.58 mg/L",10^-6 M
same,concentration at which assay was sensitive to clastogenesis,"[1]; AD, 4 hr exposure, day 30, = 58 μg/L",10^-7 M
same,increase in spermatid micronuclei,"[1]; AD, 4 hr exposure, days 22 and 30, unmodified XSCM (Table 6)",dose-dependent increase in spermatid micronuclei on both days 22 and 30
same,spermatocyte stages most sensitive to clastogenesis,"[1]; AD, 4 hrs exposure (Table 5)",leptotene (day 23) and premeiotic S or type B spermatogonia (day 30)
same,increase in spermatid micronuclei,"[1]; AD, 4 hrs exposure, each time point (Table 5)",dose-dependent increases in spermatid micronuclei at each time point examined
same,increase in assay sensitivity on increasing exposure,"[1]; AD, exposure increased from 4 hrs. to 12 hrs.",1.7 fold
"O=P1(N(CCCl)CCCl)NCCCO1 (stereo not shown) [CP, cyclophosphamide]",Micronucleus %,[1],.15 +/- .06%
same,induction of spermatid micronuclei relative to concurrent controls,[1],did not result in a significant induction of spermatid micronuclei
same,Percent Round Spermatids With Micronuclei,"[1]; CP 10^-4 moles/L, 24 hr incubation, post-CP culture Day 2",.30 +/- .14%
same,Percent Round Spermatids With Micronuclei,"[1]; CP 10^-4 moles/L, 24 hr incubation, post-CP culture Day 5",.29 +/- .14%
same,Percent Round Spermatids With Micronuclei,"[1]; CP 10^-4 moles/L, 24 hr incubation, post-CP culture Day 8",.29 +/- .13%
same,Percent Round Spermatids With Micronuclei,"[1]; CP 10^-4 moles/L, 24 hr incubation, post-CP culture Day 21",.25 +/- .07%
same,Percent Round Spermatids With Micronuclei,"[1]; CP 10^-4 moles/L, 24 hr incubation, post-CP culture Day 29, p < .001",2.70 +/- .13%
same,Micronucleus %,"[1]; CP 10^-4 moles/L, 72 hr incubation, cultured 6 days after",.27 +/- .11%
same,Percent Round Spermatids With Micronuclei,"[1]; CP 10^-5 moles/L, 24 hr incubation, post-CP culture Day 2",.20 +/- .01%
same,Percent Round Spermatids With Micronuclei,"[1]; CP 10^-5 moles/L, 24 hr incubation, post-CP culture Day 5",.19 +/- .01%
same,Percent Round Spermatids With Micronuclei,"[1]; CP 10^-5 moles/L, 24 hr incubation, post-CP culture Day 8",.29 +/- .14%
same,Percent Round Spermatids With Micronuclei,"[1]; CP 10^-5 moles/L, 24 hr incubation, post-CP culture Day 15",.38 +/- .26%
same,Percent Round Spermatids With Micronuclei,"[1]; CP 10^-5 moles/L, 24 hr incubation, post-CP culture Day 21",.41 +/- .16%
same,Percent Round Spermatids With Micronuclei,"[1]; CP 10^-5 moles/L, 24 hr incubation, post-CP culture Day 29, P < .01",1.90 +/- .43%
same,Micronucleus %,"[1]; CP 10^-5 moles/L, 72 hr incubation, cultured 6 days after",.19 +/- .01%
same,Percent Round Spermatids With Micronuclei,"[1]; CP 10^-6 moles/L, 24 hr incubation, post-CP culture Day 2",.37 +/- .28%
same,Percent Round Spermatids With Micronuclei,"[1]; CP 10^-6 moles/L, 24 hr incubation, post-CP culture Day 5",.37 +/- .29%
same,Percent Round Spermatids With Micronuclei,"[1]; CP 10^-6 moles/L, 24 hr incubation, post-CP culture Day 8",.15 +/- .06%
same,Percent Round Spermatids With Micronuclei,"[1]; CP 10^-6 moles/L, 24 hr incubation, post-CP culture Day 15",.49 +/- .13%
same,Percent Round Spermatids With Micronuclei,"[1]; CP 10^-6 moles/L, 24 hr incubation, post-CP culture Day 21",.35 +/- .07%
same,Percent Round Spermatids With Micronuclei,"[1]; CP 10^-6 moles/L, 24 hr incubation, post-CP culture Day 29, p < .05",.99 +/- .01%
same,Micronucleus %,"[1]; CP 10^-6 moles/L, 72 hr incubation, cultured 6 days after",.14 +/- .06%
same,induction of spermatid micronuclei,"[1]; CP, 24 hr incubation, 29 days after exposure",dose-dependent increase in spermatid micronuclei
same,lowest effective dose (spermatid micronuclei),"[1]; CP, 24 hr incubation, 29 days after exposure, = […]",10^-6 M
same,increase in micronuclei in spermatids from pachytene through diplotene stages,"[1]; CP, 72 hr incubation, 6 days culture",did not result in significant increases in micronuclei
same,stage restriction of clastogenesis,"[1]; CP, cultured testes",restriction of CP clastogenesis to premeiotic stages
same,stage of cells affected (aberrations),"[1]; CP, in vitro exposure of testis explants",induces aberrations in cells that require 24 to 30 days to develop into round spermatids
same,relative in vitro clastogenic potency,[1],AD>CP>DMBA
same,induction of chromosome aberrations,[2],induction of chromosome aberrations throughout meiotic prophase
"Cc1c2ccccc2c(C)c2c1ccc1ccccc12 [DMBA, 9,10-dimethyl-1,2-benzanthracene]",Percent Round Spermatids With Micronuclei,"[1]; DMBA 10^-4 moles/L, 24 hr incubation, post-DMBA culture Day 2",.16 +/- .04%
same,Percent Round Spermatids With Micronuclei,"[1]; DMBA 10^-4 moles/L, 24 hr incubation, post-DMBA culture Day 5",.15 +/- .06%
same,Percent Round Spermatids With Micronuclei,"[1]; DMBA 10^-4 moles/L, 24 hr incubation, post-DMBA culture Day 8",.17 +/- .05%
same,Percent Round Spermatids With Micronuclei,"[1]; DMBA 10^-4 moles/L, 24 hr incubation, post-DMBA culture Day 15",.48 +/- .12%
same,Percent Round Spermatids With Micronuclei,"[1]; DMBA 10^-4 moles/L, 24 hr incubation, post-DMBA culture Day 22",.28 +/- .12%
same,Percent Round Spermatids With Micronuclei,"[1]; DMBA 10^-4 moles/L, 24 hr incubation, post-DMBA culture Day 29, p < .001",1.07 +/- .14%
same,"fold increase in spermatid micronucleus frequency, 72 hr relative to 24 hr incubation","[1]; DMBA 10^-5 M (2.6 mg/L), culture day 30",3 fold
same,Percent Round Spermatids With Micronuclei,"[1]; DMBA 10^-5 moles/L, 24 hr incubation, post-DMBA culture Day 2",.19 +/- .01%
same,Percent Round Spermatids With Micronuclei,"[1]; DMBA 10^-5 moles/L, 24 hr incubation, post-DMBA culture Day 5",.16 +/- .06%
same,Percent Round Spermatids With Micronuclei,"[1]; DMBA 10^-5 moles/L, 24 hr incubation, post-DMBA culture Day 8",.39 +/- .28%
same,Percent Round Spermatids With Micronuclei,"[1]; DMBA 10^-5 moles/L, 24 hr incubation, post-DMBA culture Day 15",.20 +/- .001%
same,Percent Round Spermatids With Micronuclei,"[1]; DMBA 10^-5 moles/L, 24 hr incubation, post-DMBA culture Day 22",.48 +/- .13%
same,Percent Round Spermatids With Micronuclei,"[1]; DMBA 10^-5 moles/L, 24 hr incubation, post-DMBA culture Day 29, p < .01",.83 +/- .06%
same,Percent Round Spermatids With Micronuclei,"[1]; DMBA 10^-6 moles/L, 24 hr incubation, post-DMBA culture Day 2",.28 +/- .13%
same,Percent Round Spermatids With Micronuclei,"[1]; DMBA 10^-6 moles/L, 24 hr incubation, post-DMBA culture Day 5",.15 +/- .06%
same,Percent Round Spermatids With Micronuclei,"[1]; DMBA 10^-6 moles/L, 24 hr incubation, post-DMBA culture Day 8",.16 +/- .06%
same,Percent Round Spermatids With Micronuclei,"[1]; DMBA 10^-6 moles/L, 24 hr incubation, post-DMBA culture Day 15",.39 +/- .01%
same,Percent Round Spermatids With Micronuclei,"[1]; DMBA 10^-6 moles/L, 24 hr incubation, post-DMBA culture Day 22",.30 +/- .14%
same,Percent Round Spermatids With Micronuclei,"[1]; DMBA 10^-6 moles/L, 24 hr incubation, post-DMBA culture Day 29, p < .05",.68 +/- .01%
same,Percent Round Spermatids With Micronuclei,"[1]; DMBA 10^-7 moles/L, 24 hr incubation, 0.1% DMSO, post-DMBA culture Day 2, mean +/- s.d., n=2",.29 +/- .14%
same,Percent Round Spermatids With Micronuclei,"[1]; DMBA 10^-7 moles/L, 24 hr incubation, post-DMBA culture Day 5",.16 +/- .06%
same,Percent Round Spermatids With Micronuclei,"[1]; DMBA 10^-7 moles/L, 24 hr incubation, post-DMBA culture Day 8",.21 +/- .02%
same,Percent Round Spermatids With Micronuclei,"[1]; DMBA 10^-7 moles/L, 24 hr incubation, post-DMBA culture Day 15",.28 +/- .13%
same,Percent Round Spermatids With Micronuclei,"[1]; DMBA 10^-7 moles/L, 24 hr incubation, post-DMBA culture Day 22",.19 +/- .02%
same,Percent Round Spermatids With Micronuclei,"[1]; DMBA 10^-7 moles/L, 24 hr incubation, post-DMBA culture Day 29",.36 +/- .05%
same,increase in spermatid micronucleus frequency,"[1]; DMBA, 24 hr exposure",dose-dependent increase in the spermatid micronucleus frequency only after 29 additional days of culture
same,Percent Round Spermatids With Micronuclei,"[1]; Table 4: DMBA 10^-5 moles/L, 24 hr incubation, subsequent culture 29 days, P < .05",.86 +/- .10%
same,Percent Round Spermatids With Micronuclei,"[1]; Table 4: DMBA 10^-5 moles/L, 72 hr incubation, subsequent culture 27 days, P < .001",2.52 +/- .44%
same,relative in vitro clastogenic potency,[1],AD>CP>DMBA

# Reference: patent US4929542A, “In vitro screening test for mutagenicity and genotoxicity during spermatogenesis” (Cornell Research Foundation, Inc., priority 1987, dated 1990)
